Here are results for one compound from patent publication US11072585B2 (PharmAkea, Inc., priority 2015, dated 2021).

Test [1] concerns the target human LOXL2 (Homo sapiens (Human), UniProt Q9Y4K0). The experiment in a line: Human LOXL2 amine oxidase activity assay (Amplex Red). It is filed as biochemical. The following applies: concentrated conditioned media from CHO cells stably expressing human LOXL2; 2 h at 37° C. with compound; DAP substrate. An outline of the steps:
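Concentrated conditioned medium from CHO cells stably expressing human LOXL2 was preincubated with compound for 2 h at 37 °C in 50 mM borate, pH 8. 1,5-diaminopentane substrate and Amplex Red/HRP were then added. Fluorescence (544/590) was read kinetically every 2 min for 1 h, with activity taken from the linear slope.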

Test [2] has as its system bleomycin-induced lung fibrosis in C57Bl/6 male mice. Briefly: Mouse oropharyngeal bleomycin model of lung fibrosis. The test is classed as in vivo. The procedure:
Example B-3: Mouse Oropharyngeal Bleomycin Model of Lung Fibrosis
Lung fibrosis is induced in C57Bl/6 male mice by administering bleomycin (0.1-4 U/kg) via oropharyngeal instillation. Mice are either pretreated with vehicle or test compound (1 day to 1 hour) orally, intraperitoneally, intravenously or subcutaneously before bleomycin installation (prophylactic dosing) or 7-14 days post bleomycin instillation (therapeutic dosing). The route and frequency of dosing are based on previously determined pharmacokinetic properties for the LOXL2 inhibitor in mouse. After bleomycin instillation animals are monitored daily for weight loss and clinical signs for 14-28 days prior to sacrifice. Animals are euthanized at study termination and weighed and blood (for isolation of plasma) and bronchoalveolar lavage are collected and frozen for subsequent analyses. Lungs are removed, weighed, then either inflated and fixed by instillation of 10% formalin and prepared for histological examination or homogenized in 1 ml PBS for collagen determination using a hydroxyproline assay. For histological examination, lung slices are stained with Masson's trichrome or Picro-Sirius red to measure cross-linked collagen as an indicator of fibrosis and an Ashcroft score of lung fibrotic and inflammatory damage determined. In addition, immunohistochemistry of fibrotic proteins such as a-smooth muscle actin can be recorded. For lung hydroxyproline content, 0.5 ml of the lung homogenate is removed and added to 0.5 ml 12 N HCl and the samples heated at 120° C. overnight. After the acid hydrolysis, 25-100 μl of the supernatant is dried down, resuspended in 25 μl water and the hydroxyproline content determined by the addition of 0.5 ml Chloramine T solution (140 mg Chloramine T in 6.5 ml ddH2O+1 ml n-propanol+2.5 ml 1M sodium acetate) and incubation at room temperature for 20 min. After the incubation, 0.5 ml Erlich's solution (1.48 g of 4-(dimethylamino(benzaldehyde) in 7 ml n-propanol+2.88 ml 60% perchloric acid and 0.12 ml ddH2O) is added and incubated at 65° C. for 15 min before reading the absorbance at 550 nm. The concentration of hydroxyproline in each […] is determined from a hydroxyproline (purchased from Sigma) standard curve.

The test system of test [3] is kidney fibrosis in Col4A3 deficient mice. The experiment in a line: Mouse Alport model of kidney fibrosis. The test is classed as in vivo. The following applies: dosed prophylactically at 30 mg/kg p.o. The procedure:
Example B-7: Mouse Alport Model of Kidney Fibrosis
Mice with mutations in one of the genes of glomerular basement membrane collagen, Collagen IV-a3/a4/a5, have defects in glomerular function with development of kidney fibrosis These mice develop renal dysfunction and die prematurely of renal failure with specific timing dependent on the strain background upon which the mutation is present. LOXL2 inhibitors are administered orally to Col4A3 deficient mice on a SV129 background either prophylactically (ca. weeks 2-3 of age) or therapeutically (ca. weeks 4-6 wks of age). Mice are either sacrificed at a predefined time (7-9 wks of age) or continually dosed until they lose >15% of their body weight which preceeds death by 1-3 days. If specifically terminated, mice are perfused transcardially with PBS, and one kidney clamped at the renal artery and the other perfused with Dynabeads for magnetic isolation of glomeruli. […] RNA from glomeruli and renal cortex is analyzed by real time RT-PCR for genes of interest including MMP-10, MMP-12, IL6, MCP-1, TGF-b1, CTGF, MMP-2, and MMP-9. […] Collagen 1 staining is blindly analyzed for fibrosis scoring, and fibronectin staining is blindly analyzed for glomerulosclerosis scoring. For all studies albuminuria is assessed weekly and BUN at the time of tissue harvest.

Chain of human LOXL2 (Q9Y4K0 26-774): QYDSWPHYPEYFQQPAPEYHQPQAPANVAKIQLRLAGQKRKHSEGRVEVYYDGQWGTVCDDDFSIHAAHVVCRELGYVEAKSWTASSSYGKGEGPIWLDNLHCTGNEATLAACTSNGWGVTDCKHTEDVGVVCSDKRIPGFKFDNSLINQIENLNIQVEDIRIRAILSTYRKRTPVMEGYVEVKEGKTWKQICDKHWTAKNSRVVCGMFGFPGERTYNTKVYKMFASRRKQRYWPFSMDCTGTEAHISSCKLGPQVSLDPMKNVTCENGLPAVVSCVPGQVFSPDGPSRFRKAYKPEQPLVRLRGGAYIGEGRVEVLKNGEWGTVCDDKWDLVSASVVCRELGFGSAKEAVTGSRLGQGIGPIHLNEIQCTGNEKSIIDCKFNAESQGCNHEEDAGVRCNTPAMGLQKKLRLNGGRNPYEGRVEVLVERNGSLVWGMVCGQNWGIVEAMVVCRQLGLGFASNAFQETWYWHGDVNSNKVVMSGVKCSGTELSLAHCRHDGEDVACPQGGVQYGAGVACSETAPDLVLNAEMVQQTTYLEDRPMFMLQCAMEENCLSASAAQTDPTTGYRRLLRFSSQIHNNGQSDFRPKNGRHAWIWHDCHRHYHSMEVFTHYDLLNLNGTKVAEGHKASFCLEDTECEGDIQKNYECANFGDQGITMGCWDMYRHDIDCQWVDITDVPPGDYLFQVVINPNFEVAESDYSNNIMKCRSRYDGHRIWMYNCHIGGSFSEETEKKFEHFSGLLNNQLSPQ

Take `Cl.NCc1cc(Oc2cccc(C(=O)N3C[C@@H](O)[C@H](F)C3)c2)nc(C(F)(F)F)c1` (stereo in doubt) [Compound 1-21, (R,R)-trans-(3-((4-(Aminomethyl)-6-(trifluoromethyl)pyridin-2-yl)oxy)phenyl)(3-fluoro-4-hydroxypyrrolidin-1-yl)methanone hydrochloride]: the IC50 – broadly, the concentration that gives 50% inhibition – in test [1] was < 300 nM. The “efficacy in bleomycin lung fibrosis model, prophylactic dosing” value in test [2] (dosed prophylactically at 60 mg/kg p.o.) is “efficacious”. For the same compound, the “efficacy in bleomycin lung fibrosis model, therapeutic dosing” value in test [2] (dosed therapeutically at 60 mg/kg p.o.) is “efficacious”. The “efficacy in Alport kidney fibrosis model, prophylactic dosing” value in test [3] was “efficacious”.
